Experimental data as given in patent EP4415826B1, “SYNTHESIS AND IN VITRO ANTITUMOR ACTIVITIES OF NOVEL THIOAMIDE SUBSTITUTED PIPERAZINYL-1,2,4-TRIAZINES” (Istanbul Medipol Universitesi, priority 2021, dated 2023).

Legend:
Assay type in all cases: cell-based
SH-SY5Y neuroblastoma = test: MTT cell viability assay, SH-SY5Y; conditions: 24 hours incubation; for inhibition at 50 µM: Homo sapiens, SH-SY5Y
Protocol: (§1) In the study, […] cell lines were purchased and used: SH-SY5Y(CRL-2266, ATCC, USA), C6 Glioma(CCL-107, ATCC, USA) and HEK293(CRL-1573, ATCC, USA). All cells were cultured and propagated in Dulbecco's Modified Eagle's Medium - high glucose (Cat. No:41966029, Gibco, USA), containing 10% (v/v) Foetal Bovine Serum (Cat. No:10500064, Gibco, USA), […] (10,000 U/mL)(Cat. No:15140122, Gibco, USA).
(§2) In order to assess the viability of the cells MTT […] assay was applied. Initially cells were seeded in the 96-well plates (VWR- 10062900) at a density of 10,000 cells/well and incubated in a cell culture incubator at 37 °C with 5% CO2 for 24 hours. Then, the cells were incubated with the tested compounds at the concentration of 100µM, 50µM, 25µM and 12.5µM for 24 hours. After completion of incubation in molecules, all media were removed and 50 µl MTT (Gold Biotechnology T-030) solution was added to each well and the plates were incubated for an additional 3 hours, followed by addition of 150 µl of MTT solubilization mixture containing 0.1% Triton X-100 (Cat. No:A4025, Biomatik, USA ) and 4mM HCI (Cat. No:07102, Sigma-Aldrich, Germany) in isopropanol(Cat. No:278475, Sigma-Aldrich, Germany). The solution was slowly mixed for 15 minutes to dissolve the MTT formazan crystals and the absorbance of each well was measured with HIDEX Sense Microplate Reader(Cat. No:425-301, HIDEX, Finland) at the wavelength of 570 nm.

C6 glioma = test: MTT cell viability assay, C6; conditions: 24 hours incubation; for inhibition at 50 µM: C6 glioma
Protocol: as §1, §2

HEK293 = test: MTT cell viability assay, HEK293 healthy cell line; conditions: for inhibition at 50 µM: Homo sapiens, HEK293, 24 hours incubation
Protocol: as §1, §2

U87MG glioblastoma = test: MTT cell viability assay, U87MG; conditions: 24 hours incubation
Protocol: as §2

MCF7 breast tumor = test: MTT cell viability assay, MCF7
Protocol: as §2

NIH-3T3 = test: MTT cell viability assay, NIH-3T3 healthy cell line
Protocol: as §2

[1] = Homo sapiens, MCF7, 24 hours incubation
[2] = Mus musculus, NIH3T3, 24 hours incubation

| IC50 (U87MG glioblastoma; Homo sapiens, U-87 MG) [µM] | IC50 (MCF7 breast tumor; [1]) [µM] | SMILES | % inhibition (50 uM) SH-SY5Y (SH-SY5Y neuroblastoma) [%] | % inhibition (50 uM) C6 (C6 glioma) [%] | % inhibition (50 uM) HEK293 (HEK293; 24 hours incubation) [%] | IC50 (U87MG glioblastoma) [µM] | IC50 (MCF7 breast tumor; 24 hours incubation) [µM] | IC50 (NIH-3T3; 24 hours incubation) [µM] | inhibition at 50 µM (SH-SY5Y neuroblastoma) [%] | inhibition at 50 µM (C6 glioma) [%] | inhibition at 50 µM (HEK293) [%] | IC50 (NIH-3T3; [2]) [µM] |
| --- | --- | --- | --- | --- | --- | --- | --- | --- | --- | --- | --- | --- |
| – | 73.1 | Cc1ccc(NC(=S)N2CCN(c3nnc(-c4ccccc4)c(-c4ccccc4)n3)CC2)cc1 [Compound 1c, 4-(5,6-diphenyl-1,2,4-triazin-3-yl)-N-(p-tolyl)piperazine-1-carbothioamide] | – | – | – | – | – | – | 61.6 | 46.8 | 92.6 | – |
| 98.6 | – | S=C(Nc1ccc(Cl)cc1)N1CCN(c2nnc(-c3ccc(Cl)cc3)c(-c3ccc(Cl)cc3)n2)CC1 [Compound 1i, 4-(5,6-bis(4-chlorophenyl)-1,2,4-triazin-3-yl)-N-(4-chlorophenyl)piperazine-1-carbothioamide] | – | – | – | – | – | – | 83.6 | 78.3 | 68.4 | 81.5 |
| 55 | 61.6 | COc1ccc(NC(=S)N2CCN(c3nnc(-c4ccccc4)c(-c4ccccc4)n3)CC2)cc1 [Compound 1d, 4-(5,6-diphenyl-1,2,4-triazin-3-yl)-N-(4-methoxyphenyl)piperazine-1-carbothioamide] | – | – | – | – | – | – | 68 | 93.3 | 98 | – |
| 46 | – | S=C(Nc1ccccc1)N1CCN(c2nnc(-c3ccccc3)c(-c3ccccc3)n2)CC1 [Compound 1b, 4-(5,6-diphenyl-1,2,4-triazin-3-yl)-N-phenylpiperazine-1-carbothioamide] | – | – | – | – | – | – | 84.9 | 86.1 | 96.1 | 42.6 |

Second part, the molecule before the results:

| SMILES | IC50 (U87MG glioblastoma; Homo sapiens, U-87 MG) [µM] | IC50 (MCF7 breast tumor; [1]) [µM] | % inhibition (50 uM) SH-SY5Y (SH-SY5Y neuroblastoma) [%] | % inhibition (50 uM) C6 (C6 glioma) [%] | % inhibition (50 uM) HEK293 (HEK293; 24 hours incubation) [%] | IC50 (U87MG glioblastoma) [µM] | IC50 (MCF7 breast tumor; 24 hours incubation) [µM] | IC50 (NIH-3T3; 24 hours incubation) [µM] | inhibition at 50 µM (SH-SY5Y neuroblastoma) [%] | inhibition at 50 µM (C6 glioma) [%] | inhibition at 50 µM (HEK293) [%] | IC50 (NIH-3T3; [2]) [µM] |
| --- | --- | --- | --- | --- | --- | --- | --- | --- | --- | --- | --- | --- |
| N.N.[Cl][Pt][Cl] [Cisplatin, reference compound] | – | – | 97.80 | 79.02 | 52.60 | 10 | 3.55 | 2.05 | – | – | – | – |
| O=[N+]([O-])c1ccc(NC(=S)N2CCN(c3nnc(-c4ccccc4)c(-c4ccccc4)n3)CC2)cc1 [Compound 1e, 4-(5,6-diphenyl-1,2,4-triazin-3-yl)-N-(4-nitrophenyl)piperazine-1-carbothioamide] | – | – | – | – | – | – | – | – | 21.9 | 94.4 | 95.9 | – |
| CCNC(=S)N1CCN(c2nnc(-c3ccccc3)c(-c3ccccc3)n2)CC1 [Compound 1a, 4-(5,6-diphenyl-1,2,4-triazin-3-yl)-N-ethylpiperazine-1-carbothioamide] | 29.7 | 62.8 | – | – | – | – | – | – | 47.3 | 37.1 | 97.3 | 33.2 |
| COc1ccc(-c2nnc(N3CCN(C(=S)Nc4ccccc4)CC3)nc2-c2ccc(OC)cc2)cc1 [Compound 1g, 4-(5,6-bis(4-methoxyphenyl)-1,2,4-triazin-3-yl)-N-phenylpiperazine-1-carbothioamide] | 68.1 | 91.2 | – | – | – | – | – | – | 46.2 | 63.7 | 97.4 | 76 |
| S=C(Nc1ccccc1)N1CCN(c2nnc(-c3ccc(Cl)cc3)c(-c3ccc(Cl)cc3)n2)CC1 [Compound 1h, 4-(5,6-bis(4-chlorophenyl)-1,2,4-triazin-3-yl)-N-phenylpiperazine-1-carbothioamide] | – | 77.2 | – | – | – | – | – | – | 87.9 | 77.9 | 87.4 | 40.2 |
| S=C(Nc1ccc(Cl)cc1)N1CCN(c2nnc(-c3ccccc3)c(-c3ccccc3)n2)CC1 [Compound 1f, N-(4-chlorophenyl)-4-(5,6-diphenyl-1,2,4-triazin-3-yl)piperazine-1-carbothioamide] | 59.1 | – | – | – | – | – | – | – | 94.1 | 66.6 | 73.6 | 65.3 |
